Assay results taken from patent US10799605B2 (3B PHARMACEUTICALS GMBH, priority 2014, dated 2020).
Like-named read-outs stand apart in the source and are kept apart here.

Key:
NTR1 [1] = molecular target: T1, NTR1 (Homo sapiens (Human), UniProt P30989); test: Radioligand binding assay NTR1 (example part II); settings: 0.05 nM 125I-(Tyr3-neurotensin), 60 min at 4° C.; read-out: IC50 [nM] RLB
Procedure: (§1) In order to determine the binding affinity of compounds comprising a radiolabel for NTR1, a radioligand binding assay was carried out. A radioligand is a radioactive biochemical substance that is used for diagnosis or for research-oriented study of cellular receptor systems of the body. In […] systems it is often used to quantify the binding of a test molecule to the binding site of radioligand. The higher the affinity of the molecule, the more radioligand is displaced from the binding site. The amount of bound radioligand can be measured by scintillation counting and thereby quantified. This assay is commonly used to calculate binding constants of molecules to receptors.
(§2) The NTR1 radioligand binding assay was performed by Cerep (Celle l'Evescault, France; Catalog reference 0109) according to Vita et al., FEBS Lett., 1993, 317, 139-142. NTR1 was prepared from CHO cells recombinantly expressing the human receptor and incubated with 0.05 nM ^125I-(Tyr^3-neurotensin) and serial dilutions of the test compounds. […] The result for each test compound is expressed as IC50 concentration and provides a measure for the affinity of the test compound for NTR1.

NTR1 [2] = molecular target: T1, NTR1; test: Functional Ca2+ mobilisation assay (example part II); type: cell-based; settings: antagonist assay
Text: (§3) Ca^2+ ions are usually kept at nanomolar levels in the cytosol of cells, and act in a number of signal transduction pathways as second messengers. […] Changes in calcium ion concentration in standard assay protocols can be readily detected with fluorescent dyes that emit light when changes in intracellular Ca2^+ ion concentration occur. Given the transient nature of these responses, they are often read with instrumentation that has ‘inject and read’ capability.
(§4) HT29 or NTR1-expressing HEK293 cells were trypsinized and seeded into black flat clear-bottom 96-well plates (Corning, Amsterdam, The Netherlands) at 6×10^5 cells per well. After 24 h incubation at 37° C. and 5% CO2, cells were washed twice with wash buffer (130 mM NaCl, 5 mM KCl, 10 mM Hepes, 2 mM CaCl2, 10 mM Glucose, pH 7.4) and loaded with 100 μl of Ca5 dye (Molecular Devices, Biberach, Germany) for 1 h at 37° C. and 5% CO2. For agonist assays, serial dilutions of agonistic substances were added to the cells loaded with dye and the change of the fluorescent signal was recorded continually for approx. 90 s using a FlexStation II (Molecular Devices, Biberach, Germany). Addition of wash buffer served as a control. Thus, EC50 concentrations for each compound were computed and provided a measure for the potency of the substance. For antagonist assays, cells loaded with 100 μl of Ca5-dye were pre-incubated with serial dilutions of antagonistic substances for 30 min, before the EC80-concentration of agonist was added to the cells and the change of the fluorescent signal was recorded continually for approx. 90 s. Thus, IC50 concentrations were computed for each compound and provided a measure for the inhibitory activity of the compounds at the NTR1.

NTR1 [3] = molecular target: T1, NTR1; test: Functional Ca2+ mobilisation assay (example part I); type: cell-based
Text: as §3, with “Ca^2+” for “Ca2^+”
as §4, with “conjugate” for “compound”, “conjugates” for “compounds”

NTR1 [4] = molecular target: T1, NTR1; test: Radioligand binding assay NTR1 (example part I)
Procedure: as §1, §2

T1 sequence (P30989 whole entry): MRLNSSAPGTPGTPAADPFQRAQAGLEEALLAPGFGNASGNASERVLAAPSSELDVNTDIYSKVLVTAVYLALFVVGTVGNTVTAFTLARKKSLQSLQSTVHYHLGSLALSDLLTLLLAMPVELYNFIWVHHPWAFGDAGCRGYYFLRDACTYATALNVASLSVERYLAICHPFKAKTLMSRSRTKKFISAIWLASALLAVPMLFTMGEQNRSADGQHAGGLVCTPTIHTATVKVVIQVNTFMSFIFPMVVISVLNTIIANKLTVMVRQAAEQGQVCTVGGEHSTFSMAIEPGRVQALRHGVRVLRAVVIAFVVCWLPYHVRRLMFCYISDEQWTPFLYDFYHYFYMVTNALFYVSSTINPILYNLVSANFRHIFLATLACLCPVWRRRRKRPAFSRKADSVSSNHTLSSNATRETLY

Row | SMILES | EC50 (NTR1 [3]) [nM] | IC50 (NTR1 [3]) [nM] | IC50 (NTR1 [4]) [nM] | other results
1 | COc1cccc(OC)c1-c1cc(C(=O)NC2(C(=O)O)C3CC4CC(C3)CC2C4)nn1-c1ccc(C(=O)N(CCCN)CCCN(C)C)cc1C(C)C (centres unmarked) [(V), 2-{[1-{4-[(3-Amino-propyl)-(3-dimethylamino-propyl)-carbamoyl]-2-isopropyl-phenyl}-5-(2,6-dimethoxy-phenyl)-1H-pyrazole-3-carbonyl]-amino}-adamantane-2-carboxylic acid] | – | – | – | IC50 (NTR1 [1]): 5.3 nM; IC50 (NTR1 [2]): 8.95 nM
2 | COc1cccc(OC)c1-c1cc(C(=O)NC2(C(=O)O)C3CC4CC(C3)CC2C4)nn1-c1ccc(C(=O)N(C)CCCN(C)CCCN(C)C(=O)CCC(=O)NCCCOCCOCCOCCCNC(=O)CN2CCN(CC(=O)O)CCN(CC(=O)O)CCN(CC(=O)O)CC2)cc1C(C)C (centres unmarked) [(IIIb), 2-{[1-(4-{[3-({3-[(DOTA-Ttds)-methyl-amino]-propyl}-methyl-amino)-propyl]-methyl-carbamoyl}-2-isopropyl-phenyl)-5-(2,6-dimethoxy-phenyl)-1H-pyrazole-3-carbonyl]-amino}-adamantane-2-carboxylic acid] | – | – | – | IC50 (NTR1 [1]): 5.2 nM; IC50 (NTR1 [2]): 16.6 nM
3 | COc1cccc(OC)c1-c1cc(C(=O)NC2(C(=O)O)C3CC4CC(C3)CC2C4)nn1-c1ccc(C(=O)N(C)CCCN(C)CCCN(C)C(=O)CCCC(=O)NCCCC[C@H](NC(=O)CCC(=O)NCCCOCCOCCOCCCNC(=O)CCC(=O)NCCCOCCOCCOCCCNC(=O)CCC(=O)NCCCOCCOCCOCCCNC(=O)[C@H](CCCCNC(=O)CN2CCN(CC(=O)O)CCN(CC(=O)O)CCN(CC(=O)O)CC2)NC(=O)CCC(=O)NCCCOCCOCCOCCCNC(=O)CCC(=O)NCCCOCCOCCOCCCNC(=O)CCC(=O)NCCCOCCOCCOCCCNC(=O)CCCC(=O)N(C)CCCN(C)CCCN(C)C(=O)c2ccc(-n3nc(C(=O)NC4(C(=O)O)C5CC6CC(C5)CC4C6)cc3-c3c(OC)cccc3OC)c(C(C)C)c2)C(N)=O)cc1C(C)C (some centres unmarked) [(15), 1206-Glutar-Ttds3-Lys(DOTA)-Ttds3-(ε-Lys-NH2)-Glutar-1206] | > 50000 | 2.3 | 4.7 | –
4 | COc1cccc(OC)c1-c1cc(C(=O)NC2(C(=O)O)C3CC4CC(C3)CC2C4)nn1-c1ccc(C(=O)N(C)CCCN(C)CCCN(C)C(=O)CCCC(=O)NCCCOCCOCCOCCCNC(=O)CCC(=O)NCCCOCCOCCOCCCNC(=O)CCC(=O)NCCCOCCOCCOCCCNC(=O)CCC(=O)N[C@@H](CCCCNC(=O)CN2CCN(CC(=O)O)CCN(CC(=O)O)CCN(CC(=O)O)CC2)C(=O)NCCCOCCOCCOCCCNC(=O)CCC(=O)NCCCOCCOCCOCCCNC(=O)CCC(=O)NCCCOCCOCCOCCCNC(=O)CCC(=O)NCCCC(=O)N[C@H](CCCNC(=N)N)C(=O)N[C@@H](CCCNC(=N)N)C(=O)N2CCC[C@H]2C(=O)N[C@@H](Cc2ccc(O)cc2)C(=O)N[C@H](C(=O)N[C@@H](CC(C)C)C(=O)O)C(C)(C)C)cc1C(C)C (stereo partly drawn) [(18), 1206-Glutar-Ttds3-Lys(DOTA)-Ttds3-GABA-arg-Arg-Pro-Tyr-Tle-Leu-OH] | > 50000 | 3.8 | 2.7 | –
5 | COc1cccc(OC)c1-c1cc(C(=O)NC2(C(=O)O)C3CC4CC(C3)CC2C4)nn1-c1ccc(C(=O)N(C)CCCN(C)CCCN(C)C(=O)CCCNC(=O)CCC(=O)NCCCOCCOCCOCCCNC(=O)[C@H](CCCCNC(=O)CN2CCN(CC(=O)O)CCN(CC(=O)O)CCN(CC(=O)O)CC2)NC(=O)CCC(=O)NCCCOCCOCCOCCCNC(=O)CCCC(=O)N(C)CCCN(C)CCCN(C)C(=O)c2ccc(-n3nc(C(=O)NC4(C(=O)O)C5CC6CC(C5)CC4C6)cc3-c3c(OC)cccc3OC)c(C(C)C)c2)cc1C(C)C (some centres unmarked) [(12), 1206-Glutar-Ttds-Lys(DOTA)-Ttds-GABA-1206] | – | – | – | EC50 (NTR1 [3]; agonist assay, * bell-shaped curves, EC50 from ascending part of the curve, read-out: Agonistic Effect EC50): > 50000 nM; IC50 (NTR1 [3]; antagonist assay, 30 min pre-incubation, EC80-concentration of agonist, read-out: Antagonistic Effect IC50): 2.5 nM; IC50 (NTR1 [4]; 0.05 nM 125I-(Tyr3-neurotensin), 60 min at 4° C., read-out: IC50): 2.5 nM
6 | COc1cccc(OC)c1-c1cc(C(=O)NC2(C(=O)O)C3CC4CC(C3)CC2C4)nn1-c1ccc(C(=O)N(C)CCCN(C)CCCN(C)C(=O)CCN2C(=O)CC(SC[C@H](NC(=O)CCC(=O)NCCCOCCOCCOCCCNC(=O)CCC(=O)NCCCOCCOCCOCCCNC(=O)CCC(=O)NCCCOCCOCCOCCCNC(=O)[C@H](CCCCNC(=O)CN3CCN(CC(=O)O)CCN(CC(=O)O)CCN(CC(=O)O)CC3)NC(=O)CCC(=O)NCCCOCCOCCOCCCNC(=O)CCC(=O)NCCCOCCOCCOCCCNC(=O)CCC(=O)NCCCOCCOCCOCCCNC(=O)CCCNC(=O)[C@@H](NC(=O)[C@H](CCCNC(=N)N)NC(=O)[C@H](C)NC(=O)[C@@H](NC(=O)[C@H](CCCCN)NC(=O)[C@H](CCC(N)=O)NC(=O)[C@H](C)NC(=O)[C@H](CC(C)C)NC(=O)[C@@H](NC(=O)[C@H](CCC(N)=O)NC(=O)[C@H](CC(C)C)NC(=O)[C@H](CC(=O)O)NC(=O)CNC(=O)[C@H](CCCNC(=N)N)NC(=O)[C@H](CC(C)C)NC(=O)[C@H](CC(N)=O)NC(=O)[C@@H]3CCCN3C(=O)[C@@H](NC(=O)[C@H](C)NC(=O)[C@H](CC(N)=O)NC(C)=O)C(C)C)C(C)C)C(C)C)[C@@H](C)O)C(N)=O)C2=O)cc1C(C)C (some centres unmarked) [(23)] | > 50000 | 15 | 6.7 | –
7 | COc1cccc(OC)c1-c1cc(C(=O)NC2(C(=O)O)C3CC4CC(C3)CC2C4)nn1-c1ccc(C(=O)N(C)CCCN(C)CCCN(C)C(=O)CCCC(=O)NCCCOCCOCCOCCCNC(=O)CCC(=O)N[C@@H](CCCCNC(=O)CN2CCN(CC(=O)O)CCN(CC(=O)O)CCN(CC(=O)O)CC2)C(=O)NCCCOCCOCCOCCCNC(=O)CCC(=O)NCCCC(=O)N[C@H](CCCNC(=N)N)C(=O)N[C@@H](CCCNC(=N)N)C(=O)N2CCC[C@H]2C(=O)N[C@@H](Cc2ccc(O)cc2)C(=O)N[C@H](C(=O)N[C@@H](CC(C)C)C(=O)O)C(C)(C)C)cc1C(C)C (stereo partly drawn) [(17), 1206-Glutar-Ttds-Lys(DOTA)-Ttds-GABA-arg-Arg-Pro-Tyr-Tle-Leu-OH] | 7 | 3.4 | 0.32 | shape of EC50 curve (NTR1 [3]; agonist assay): bell-shaped EC50 curves
8 | COc1cccc(OC)c1-c1cc(C(=O)NC2(C(=O)O)C3CC4CC(C3)CC2C4)nn1-c1ccc(C(=O)N(C)CCCN(C)CCCN(C)C(=O)CCCC(=O)NCCCOCCOCCOCCCNC(=O)CCC(=O)N[C@@H](CCCCNC(=O)CN2CCN(CC(=O)O)CCN(CC(=O)O)CCN(CC(=O)O)CC2)C(=O)NCCCOCCOCCOCCCNC(=O)CCC(=O)NCCCC(=O)N[C@@H](CC(N)=O)C(=O)N[C@@H](C)C(=O)N[C@H](C(=O)N2CCC[C@H]2C(=O)N[C@@H](CC(N)=O)C(=O)N[C@@H](CC(C)C)C(=O)N[C@@H](CCCNC(=N)N)C(=O)NCC(=O)N[C@@H](CC(=O)O)C(=O)N[C@@H](CC(C)C)C(=O)N[C@@H](CCC(N)=O)C(=O)N[C@H](C(=O)N[C@@H](CC(C)C)C(=O)N[C@@H](C)C(=O)N[C@@H](CCC(N)=O)C(=O)N[C@@H](CCCCN)C(=O)N[C@H](C(=O)N[C@@H](C)C(=O)N[C@@H](CCCNC(=N)N)C(=O)N[C@H](C(N)=O)[C@@H](C)O)C(C)C)C(C)C)C(C)C)cc1C(C)C (some centres unmarked) [(21)] | > 50000 | 18 | 10 | –
